According to US20200352947A1, “USE OF SEROTONERGIC DRUGS TO TREAT VIRUS-INDUCED THROMBOCYTOPENIA” (NATIONAL UNIVERSITY OF SINGAPORE, priority 2017, published 2020):

What was measured:
Assay type in all cases: in vivo
DENV2-infected mice = test: Platelet counts (thrombocytopenia) in DENV2-infected WT mice; settings: 10^6 pfu DENV2 IP, 24 hours post-infection, n=5
Procedure: (§1) Platelet counts of DENV2 infected mice. Mice were infected via intraperitoneal route (IP) with 10^6 plaque forming units (pfu) and were given either vehicle (1% DMSO) or ketanserin 8 mg/kg IP. Blood was taken via cheek bleed 24 hours post-infection and platelet counts were measured using an automated hematology analyzer. DENV2 infection induces thrombocytopenia, but ketanserin treatment is able to prevent thrombocytopenia (n=5). Mean values are presented and error bars represent the SEM. P values were determined by Student's unpaired t test; ***P<0.001, ****P<0.0001.
Platelet counts of DENV2 infected mice. Mice were infected IP with 10^6 pfu of DENV2 and were given either vehicle, the 5HT1A antagonist WAY-100135, or either of the 5HT2A antagonists, ketanserin and sarpogrelate. Blood was taken via cheek bleed 24 hours post-infection and platelet counts were measured using an automated hematology analyzer. DENV2 infection induced thrombocytopenia that was able to be prevented through administration of serotonin receptor antagonists (n=5). Mean values are presented and error bars represent the SEM. P values were determined by one-way ANOVA; ***p<0.001, ****P<0.0001.
WT mice were infected via intraperitoneal route (IP) with 10^6 plaque forming units (pfu) of DENV2 and were given either vehicle (1% DMSO) or ketanserin (8 mg/kg) IP. Blood was taken via cheek bleed 24 hours post-infection and platelet counts were measured using an automated hematology analyzer.
One limitation of the experimental protocol in Examples 10 and 11 is that the vehicle used to deliver ketanserin in mice, DMSO, can itself interfere with platelet aggregation [Rosenblum, W. I. & El-Sabban. F. Stroke 13, 35-39 (1982)]. This difference can be observed by comparing the severity of thrombocytopenia in dengue-infected mice between FIGS. 1 and 10. Accordingly, newer serotonin receptor antagonists that are more soluble in saline were tested, to determine whether a similar effect is seen even without the confounding effects of DMSO. Mice were infected IP with 10^6 pfu of DENV2 and were given either vehicle, the 5HT1A antagonist WAY-100135 (3 mg/kg), or one of the 5HT2A antagonists ketanserin (8 mg/kg) or sarpogrelate (3 mg/kg). Blood was taken via cheek bleed 24 hours post-infection and platelet counts were measured using an automated hematology analyzer.

DENV2 [1] = test: DENV viral load by qRT-PCR in IFNR-KO mice; settings: DENV2 2×10^5 pfu i.p., ketanserin 8 mg/kg daily, 72 h post-infection
Procedure: (§2) (A) WT mice were treated with vehicle or ketanserin (8 mg/kg) prior to subcutaneous footpad injection with 2×10^5 pfu of DENV or PBS. At 72 h post-infection, popliteal lymph nodes were isolated for viral quantification by qRT-PCR. […] (B-C) WT mice were infected with DENV2 (1×10^6 pfu, i.p.) and treated daily with either 8 mg/kg of ketanserin or vehicle. […] (C) At 1 day post-infection, the spleen was harvested and DENV2 was quantified by qRT-PCR.
(§3) Since a concern with inhibition of host factors would be the effect on viral replication, the levels of viremia following DENV infection were measured. WT mice were treated with either ketanserin or vehicle prior to a subcutaneous footpad injection. The draining lymph nodes were then harvested to determine if targeting 5HT2A receptors had any influence on viral load. […] Subsequently it was determined whether targeting serotonin would have an effect on viral load in systemic infection. WT mice were treated with either ketanserin or vehicle following DENV systemic infection via intraperitoneal injection. Serum was isolated at days 1 and 3 post-infection and viremia quantified. […] The second model of severe DENV infection, the IFN-α,β, γ-R^−/− (IFNR-KO) mice, were subsequently infected and treated with either ketanserin or vehicle. These mice are known to have higher levels of viremia than WT mice.

JEV-infected mice = test: Platelet counts in JEV-infected mice; settings: 10^6 pfu JEV IP, ketanserin 8 mg/kg at 1 hour post-infection, 24 hours, n=5
Procedure: Platelet counts of JEV infected mice. Mice were infected with 10^6 pfu of JEV intraperitoneally and were vehicle- or ketanserin-treated (8 mg/kg) at 1 hour post-infection. At 24 hours, blood was collected and platelet counts were measured. The drop in platelet counts induced by JEV was prevented by ketanserin treatment (n=5). Mean values are presented and error bars represent the SEM. P values were determined by Student's unpaired t test; *p<0.05.
Japanese encephalitis virus (JEV) is a flavivirus related to dengue, so the ability of ketanserin to inhibit JEV-induced thrombocytopenia was also tested. Mice were infected with 10^6 pfu of JEV IP, and were treated at 1 hour post-infection with vehicle (1% DMSO) or ketanserin (8 mg/kg). At 24 hours, blood was collected and platelet counts were measured. The reduction in platelet counts induced by JEV was inhibited by ketanserin treatment (FIG. 14).

DENV2 [2] = test: DENV viral load by qRT-PCR in WT mice
Procedure: as §2, §3

[3] = test system: DENV2-infected IFNαβγ-KO mice; test: Platelet counts in DENV2-infected mice deficient in interferon signalling; settings: 10^6 pfu DENV2 IP, ketanserin 8 mg/kg IP once daily, 24 and 72 hours post-infection, n=5
Procedure: as §1, with “Mice deficient in interferon signalling (IFNαβγ-KO)” for “Mice”, “[…].” for “IP.”, “24 and 72” for “24”, “induced” for “induces”, “was” for “is”, “test;” for “test; ***P<0.001,”
These mice are commonly used in the study of DENV as their deficiency in interferon signaling results in sustained DENV replication [St John, A. L., et al., eLife 2, e00481 (2013)]. IFNαβγ-KO mice were infected via the intraperitoneal route (IP) with 10^6 plaque forming units (pfu) of DENV2 and were given either vehicle (1% DMSO) or ketanserin (8 mg/kg) IP once daily thereafter. Blood was taken via cheek bleed 24 and 72 hours post-infection and platelet counts were measured using an automated hematology analyzer.

**Q.** Which results are given for `O=C(c1ccc(F)cc1)C1CCN(CCn2c(=O)[nH]c3ccccc3c2=O)CC1` [ketanserin, 3-[2-[4-(4-fluorobenzoyl)piperidin-1-yl]ethyl]-1H-quinazoline-2,4-dione]?
**A.** platelet counts (DENV2-induced thrombocytopenia) (DENV2-infected mice; WT mice, ketanserin 8 mg/kg IP, vehicle 1% DMSO): did not show significantly reduced platelets compared to control; platelet counts (DENV2-induced thrombocytopenia) (DENV2-infected mice; mice, WAY-100135 3 mg/kg, ketanserin 8 mg/kg or sarpogrelate 3 mg/kg): prevented; viral load in serum (DENV2 [1]): no difference in viral load; viral load in spleen (DENV2 [1]): no difference in viral load; reduction in platelet counts induced by JEV (JEV-infected mice): inhibited; viral load in the spleen (DENV2 [2]; DENV2 1×10^6 pfu i.p., ketanserin 8 mg/kg daily, 1 day post-infection): did not affect viral load in the spleen; serum viremia (DENV genome copy numbers) (DENV2 [2]; DENV2 1×10^6 pfu i.p., ketanserin 8 mg/kg daily, days 1 and 3 post-infection, n=5): no significant difference in serum DENV genome copy numbers at both time points; viral load in the draining (popliteal) lymph node (DENV2 [2]; ketanserin 8 mg/kg prior to subcutaneous footpad injection of 2×10^5 pfu DENV, 72 h post-infection): did not affect viral load in the draining lymph node; platelet counts (DENV2-induced thrombocytopenia) [3]: able to maintain the initial normal platelet count
